Source: ChEMBL document CHEMBL3991601, “The target landscape of clinical kinase drugs” (Science, 2017)
Calls of active or inactive are those of the source. Cut-off read from the data, not from the text of the source, for most assays here: actives have a measured Kd and inactives only a lower limit.

Columns and labels:
[1] = target: T1, Heme oxygenase 2 (Homo sapiens, UniProt P30519)
T1 sequence (P30519 whole entry): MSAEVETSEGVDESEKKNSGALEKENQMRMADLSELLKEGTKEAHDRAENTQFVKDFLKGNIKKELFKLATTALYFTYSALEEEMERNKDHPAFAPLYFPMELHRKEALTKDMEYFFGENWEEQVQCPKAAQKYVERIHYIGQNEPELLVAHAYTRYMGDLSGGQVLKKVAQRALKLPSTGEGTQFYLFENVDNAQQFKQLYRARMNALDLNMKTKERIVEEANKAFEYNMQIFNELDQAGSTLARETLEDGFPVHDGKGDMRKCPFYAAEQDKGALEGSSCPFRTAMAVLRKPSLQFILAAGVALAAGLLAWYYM

[2] = target: cAMP-dependent protein kinase catalytic subunit beta (Homo sapiens, UniProt P22694)
[3] = target: T2, Serine/threonine-protein kinase ULK1 (Homo sapiens, UniProt O75385)
T2 sequence (O75385 whole entry): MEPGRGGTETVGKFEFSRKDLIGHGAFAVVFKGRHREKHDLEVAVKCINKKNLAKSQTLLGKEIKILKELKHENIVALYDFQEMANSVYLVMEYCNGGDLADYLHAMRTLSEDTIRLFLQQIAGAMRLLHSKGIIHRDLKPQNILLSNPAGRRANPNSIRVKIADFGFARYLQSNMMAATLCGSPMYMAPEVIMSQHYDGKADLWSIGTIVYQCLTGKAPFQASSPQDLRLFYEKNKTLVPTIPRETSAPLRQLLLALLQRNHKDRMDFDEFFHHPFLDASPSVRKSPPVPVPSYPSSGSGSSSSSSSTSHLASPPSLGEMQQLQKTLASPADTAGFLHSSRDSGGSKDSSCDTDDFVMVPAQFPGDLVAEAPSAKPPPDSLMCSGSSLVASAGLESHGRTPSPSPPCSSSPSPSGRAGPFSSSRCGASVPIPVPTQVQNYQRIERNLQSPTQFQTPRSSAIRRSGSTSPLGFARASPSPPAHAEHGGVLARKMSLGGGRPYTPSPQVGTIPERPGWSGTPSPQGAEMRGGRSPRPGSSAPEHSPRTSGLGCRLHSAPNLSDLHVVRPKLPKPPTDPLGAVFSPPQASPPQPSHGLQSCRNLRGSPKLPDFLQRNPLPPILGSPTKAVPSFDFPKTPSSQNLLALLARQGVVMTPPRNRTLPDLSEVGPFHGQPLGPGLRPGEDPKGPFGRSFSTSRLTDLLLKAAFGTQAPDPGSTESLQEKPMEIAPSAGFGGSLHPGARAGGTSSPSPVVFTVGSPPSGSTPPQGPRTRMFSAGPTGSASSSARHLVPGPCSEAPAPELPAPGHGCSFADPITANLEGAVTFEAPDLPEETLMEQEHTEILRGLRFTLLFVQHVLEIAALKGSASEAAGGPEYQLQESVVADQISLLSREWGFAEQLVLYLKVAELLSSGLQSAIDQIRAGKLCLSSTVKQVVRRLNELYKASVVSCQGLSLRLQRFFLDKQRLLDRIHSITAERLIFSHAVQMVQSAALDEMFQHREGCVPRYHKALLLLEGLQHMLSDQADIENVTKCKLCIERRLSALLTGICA

[4] = target: Dual specificity mitogen-activated protein kinase kinase 1 (Homo sapiens, UniProt Q02750)
Chain of Dual specificity mitogen-activated protein kinase kinase 1 (Q02750 whole entry): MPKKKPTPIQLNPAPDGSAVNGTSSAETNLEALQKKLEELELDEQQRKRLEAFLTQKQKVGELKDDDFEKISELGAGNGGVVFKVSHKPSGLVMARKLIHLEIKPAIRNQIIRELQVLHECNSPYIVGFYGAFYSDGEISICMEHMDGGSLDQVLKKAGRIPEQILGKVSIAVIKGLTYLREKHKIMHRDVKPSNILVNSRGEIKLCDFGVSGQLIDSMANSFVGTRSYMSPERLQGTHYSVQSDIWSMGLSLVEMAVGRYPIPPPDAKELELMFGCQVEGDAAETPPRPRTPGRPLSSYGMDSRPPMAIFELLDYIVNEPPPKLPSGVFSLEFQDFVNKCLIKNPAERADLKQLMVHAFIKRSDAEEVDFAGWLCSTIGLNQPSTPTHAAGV

[5] = target: T3, Cyclin-G-associated kinase (Homo sapiens, UniProt O14976)
T3 sequence (O14976 whole entry): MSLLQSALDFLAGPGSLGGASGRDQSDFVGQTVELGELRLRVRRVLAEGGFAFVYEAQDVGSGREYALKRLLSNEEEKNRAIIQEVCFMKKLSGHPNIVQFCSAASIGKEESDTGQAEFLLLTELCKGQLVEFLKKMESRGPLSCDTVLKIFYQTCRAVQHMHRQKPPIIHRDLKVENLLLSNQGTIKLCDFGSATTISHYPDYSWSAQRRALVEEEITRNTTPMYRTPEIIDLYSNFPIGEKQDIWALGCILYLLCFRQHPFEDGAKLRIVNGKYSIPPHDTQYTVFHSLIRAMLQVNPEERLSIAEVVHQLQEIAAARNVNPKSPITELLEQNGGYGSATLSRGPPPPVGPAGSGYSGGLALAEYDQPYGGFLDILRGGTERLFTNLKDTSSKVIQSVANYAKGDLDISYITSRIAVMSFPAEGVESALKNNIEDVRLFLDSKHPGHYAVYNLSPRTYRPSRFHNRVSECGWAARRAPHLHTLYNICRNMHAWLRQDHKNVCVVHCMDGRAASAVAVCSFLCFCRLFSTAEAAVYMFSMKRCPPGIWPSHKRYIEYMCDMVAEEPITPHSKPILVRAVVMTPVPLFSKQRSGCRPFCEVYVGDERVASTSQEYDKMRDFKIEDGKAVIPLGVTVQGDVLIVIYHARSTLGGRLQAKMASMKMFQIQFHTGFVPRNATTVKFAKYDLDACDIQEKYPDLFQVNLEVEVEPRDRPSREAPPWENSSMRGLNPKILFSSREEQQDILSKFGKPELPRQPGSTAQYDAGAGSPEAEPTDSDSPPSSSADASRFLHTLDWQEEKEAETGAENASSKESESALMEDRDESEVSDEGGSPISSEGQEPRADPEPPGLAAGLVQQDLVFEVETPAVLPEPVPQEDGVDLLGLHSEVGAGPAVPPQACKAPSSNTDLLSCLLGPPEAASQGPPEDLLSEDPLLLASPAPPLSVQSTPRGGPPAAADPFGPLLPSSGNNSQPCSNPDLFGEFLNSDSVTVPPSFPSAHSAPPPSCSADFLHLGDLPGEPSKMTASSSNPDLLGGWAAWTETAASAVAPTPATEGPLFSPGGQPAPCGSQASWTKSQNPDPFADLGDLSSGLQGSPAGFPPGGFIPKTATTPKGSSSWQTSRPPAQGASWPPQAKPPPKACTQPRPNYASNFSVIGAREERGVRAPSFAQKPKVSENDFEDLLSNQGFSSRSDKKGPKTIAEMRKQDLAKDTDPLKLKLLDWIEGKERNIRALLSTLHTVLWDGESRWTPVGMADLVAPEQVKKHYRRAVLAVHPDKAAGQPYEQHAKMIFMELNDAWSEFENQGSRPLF

[6] = target: STE20-like serine/threonine-protein kinase (Homo sapiens, UniProt Q9H2G2)
Chain of STE20-like serine/threonine-protein kinase (Q9H2G2 whole entry): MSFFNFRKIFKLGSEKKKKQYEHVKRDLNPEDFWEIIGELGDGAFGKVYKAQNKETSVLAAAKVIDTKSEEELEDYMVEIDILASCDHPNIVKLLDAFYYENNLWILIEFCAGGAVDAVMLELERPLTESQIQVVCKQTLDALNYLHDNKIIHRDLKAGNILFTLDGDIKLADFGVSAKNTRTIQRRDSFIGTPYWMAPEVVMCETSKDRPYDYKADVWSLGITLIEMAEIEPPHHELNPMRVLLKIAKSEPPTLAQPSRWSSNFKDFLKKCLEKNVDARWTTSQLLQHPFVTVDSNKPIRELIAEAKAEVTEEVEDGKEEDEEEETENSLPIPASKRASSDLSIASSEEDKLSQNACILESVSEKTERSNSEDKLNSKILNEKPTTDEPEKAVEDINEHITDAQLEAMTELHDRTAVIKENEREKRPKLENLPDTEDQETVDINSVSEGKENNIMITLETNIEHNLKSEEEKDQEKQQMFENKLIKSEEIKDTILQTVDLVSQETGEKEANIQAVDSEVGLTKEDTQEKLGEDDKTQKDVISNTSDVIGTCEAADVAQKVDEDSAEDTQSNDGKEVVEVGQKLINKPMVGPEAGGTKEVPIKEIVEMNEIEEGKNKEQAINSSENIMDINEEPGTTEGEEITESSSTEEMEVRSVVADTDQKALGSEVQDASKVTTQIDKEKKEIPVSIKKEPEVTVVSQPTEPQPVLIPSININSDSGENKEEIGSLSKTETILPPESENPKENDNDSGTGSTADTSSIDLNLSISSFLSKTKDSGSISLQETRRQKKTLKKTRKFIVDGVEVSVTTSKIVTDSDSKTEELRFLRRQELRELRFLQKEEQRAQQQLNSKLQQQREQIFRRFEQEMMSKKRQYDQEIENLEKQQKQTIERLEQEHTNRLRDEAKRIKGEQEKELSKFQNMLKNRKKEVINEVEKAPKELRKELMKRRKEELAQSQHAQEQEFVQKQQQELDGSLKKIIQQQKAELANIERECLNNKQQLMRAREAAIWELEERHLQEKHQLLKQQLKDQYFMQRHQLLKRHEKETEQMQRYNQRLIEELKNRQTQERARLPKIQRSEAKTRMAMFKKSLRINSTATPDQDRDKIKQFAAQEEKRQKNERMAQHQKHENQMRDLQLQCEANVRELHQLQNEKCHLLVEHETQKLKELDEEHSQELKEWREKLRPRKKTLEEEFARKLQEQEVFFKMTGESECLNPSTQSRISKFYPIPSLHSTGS
Note: in the data inactive means no Kd found up to 30 µM.

Kd [1]	Kd [2]	Kd [3]	Kd [4]	Kd [5]	Kd [6]	SMILES
> 30 µM (inactive)	> 30 µM (inactive)	> 30 µM (inactive)	> 30 µM (inactive)	> 30 µM (inactive)	> 30 µM (inactive)	Cn1cc(-c2ccc(F)c(C(F)(F)F)c2)nc1C1CCN(c2ncnc3[nH]ncc23)CC1 [LY-2584702]
> 30 µM (inactive)	> 30 µM (inactive)	> 30 µM (inactive)	> 30 µM (inactive)	> 30 µM (inactive)	> 30 µM (inactive)	COc1ccc(-c2ccc3c(N4CCOC[C@@H]4C)nc(N4CCOC[C@@H]4C)nc3n2)cc1CO [AZD-8055]
> 30 µM (inactive)	> 30 µM (inactive)	> 30 µM (inactive)	> 30 µM (inactive)	> 30 µM (inactive)	> 30 µM (inactive)	O=C(O)[C@]1(Cc2cccc(Nc3nccs3)n2)CC[C@@H](Oc2cccc(Cl)c2F)CC1 [MK-5108]
> 30 µM (inactive)	> 30 µM (inactive)	> 30 µM (inactive)	> 30 µM (inactive)	> 30 µM (inactive)	> 30 µM (inactive)	COc1cc(CCc2cc(NC(=O)c3ccc(N4C[C@@H](C)N[C@@H](C)C4)cc3)n[nH]2)cc(OC)c1 [AZD-4547]

Further lines, the compound ahead of its results:

SMILES	Kd [1]	Kd [2]	Kd [3]	Kd [4]	Kd [5]	Kd [6]
O=C(c1ccc(F)c(F)c1Nc1ccc(I)cc1F)N1CC(O)([C@@H]2CCCCN2)C1 [COBIMETINIB]	> 30 µM (inactive)	> 30 µM (inactive)	> 30 µM (inactive)	0.309 µM (active)	> 30 µM (inactive)	> 30 µM (inactive)
CN1CCC(COc2cnc(-c3cccc(Cn4nc(-c5cccc(C#N)c5)ccc4=O)c3)nc2)CC1 [TEPOTINIB]	> 30 µM (inactive)	> 30 µM (inactive)	> 30 µM (inactive)	> 30 µM (inactive)	> 30 µM (inactive)	> 30 µM (inactive)
CC[C@@H]1C(=O)N(C)c2cnc(Nc3ccc(C(=O)N[C@H]4CC[C@H](N5CCN(CC6CC6)CC5)CC4)cc3OC)nc2N1C(C)C [VOLASERTIB]	> 30 µM (inactive)	> 30 µM (inactive)	> 30 µM (inactive)	> 30 µM (inactive)	> 30 µM (inactive)	> 30 µM (inactive)
C[C@@H]1CN(Cc2ccc(F)cc2)[C@@H](C)CN1C(=O)c1cc2c(C(=O)C(=O)N(C)C)cn(C)c2cc1Cl [TALMAPIMOD]	> 30 µM (inactive)	> 30 µM (inactive)	> 30 µM (inactive)	> 30 µM (inactive)	> 30 µM (inactive)	> 30 µM (inactive)
CO[C@H]1C[C@@H]2CC[C@@H](C)[C@@](O)(O2)C(=O)C(=O)N2CCCC[C@H]2C(=O)O[C@H]([C@H](C)C[C@@H]2CC[C@@H](OCCO)[C@H](OC)C2)CC(=O)[C@H](C)/C=C(\C)[C@@H](O)[C@@H](OC)C(=O)[C@H](C)C[C@H](C)/C=C/C=C/C=C/1C [EVEROLIMUS]	> 30 µM (inactive)	> 30 µM (inactive)	> 30 µM (inactive)	> 30 µM (inactive)	> 30 µM (inactive)	> 30 µM (inactive)
COc1cc2nccc(Oc3ccc(NC(=O)Nc4cc(C)on4)c(Cl)c3)c2cc1OC [TIVOZANIB]	> 30 µM (inactive)	> 30 µM (inactive)	> 30 µM (inactive)	> 30 µM (inactive)	> 30 µM (inactive)	> 30 µM (inactive)
Cc1ccc(NC(=O)c2ccc(CN3CC[C@H](N(C)C)C3)c(C(F)(F)F)c2)cc1Nc1nccc(-c2cncnc2)n1 [BAFETINIB]	> 30 µM (inactive)	> 30 µM (inactive)	> 30 µM (inactive)	> 30 µM (inactive)	> 30 µM (inactive)	> 30 µM (inactive)
Cc1ccc(-n2nc(C(C)(C)C)cc2NC(=O)NCc2cc(F)ccc2Oc2ccc3c(cnn3CCO)c2)cc1 [PEXMETINIB]	> 30 µM (inactive)	> 30 µM (inactive)	> 30 µM (inactive)	> 30 µM (inactive)	> 30 µM (inactive)	> 30 µM (inactive)
CNC(=O)c1ccc(-c2cnc3ncc(Cc4ccc5ncccc5c4)n3n2)cc1F [CAPMATINIB]	> 30 µM (inactive)	> 30 µM (inactive)	> 30 µM (inactive)	> 30 µM (inactive)	> 30 µM (inactive)	> 30 µM (inactive)
